Results published in patent US20200256853A1, “Models of Reconstructed Sensitive Skin” (Laboratoires Expanscience, priority 2017, published 2020).

Assays:
Assay type in all cases: cell-based
[1] = test system: reconstructed Sensitive Skin model (reconstructed human epidermises treated with 0.6% lactic acid); assay: Determination of PUFAs (GC/MS) in reconstructed Sensitive Skin model, Example 3; conditions: for C18:1 Change / C18:2 LA Change / C20:4 AA Change: change vs. lactic acid
Description: Screening of polyunsaturated fatty acids (PUFAs) expressed by the epidermis was carried out by GC/MS analysis of samples obtained after grinding the epidermises (n=2).
The amounts were normalized by C16:0 (palmitic acid), which is representative of the overall lipid content of the epidermis.
(§1) Reconstructed human epidermises were obtained from the keratinocytes of a […] donor using the method derived from Poumay et al. (Arch Dermatol Res 2004; 296:203-11). After 2 days of immersion culture, the reconstructed human epidermises were cultured at the air/liquid interface for 10 days.
(§2) Epidermises at differentiation day 10 was treated or not (control) systemically with the test compounds and incubated for 24 hours.
(§3) Same protocol as described in Example 2. • Determination of Poly-Unsaturated Fatty Acids (PUFAs) (n=2)
Same protocol as described in Example 2.

[2] = test system: reconstructed Sensitive Skin model (reconstructed human epidermises treated with 0.6% lactic acid); assay: Determinations of released inflammatory mediators (ELISA) in reconstructed Sensitive Skin model, Example 3; conditions: for Released IL1-alpha Change / Released IL8 Change / Released PGE2 Change: change vs. lactic acid
Description: as §1, §2
(§4) The amount of inflammatory mediators IL-1alpha (IL1α), IL-8 and PGE2 present in skin culture supernatants was evaluated using ELISA kits (R&D Systems). • Evaluations of intracellular inflammatory markers IL-1α, IL8 and IL1-RA (n=2)

[3] = test system: reconstructed Sensitive Skin model (reconstructed human epidermises treated with 0.6% lactic acid); assay: Intracellular measurements of inflammatory mediators (ELISA) in reconstructed Sensitive Skin model, Example 3; conditions: for IL1RA/IL1-alpha ratio Change / Intracellular IL1-alpha Change / Intracellular IL1RA Change / Intracellular IL8 Change: change vs. lactic acid
Description: Intracellular amounts of IL-1α, IL8 and IL1-RA were determined by ELISA (R&D Systems) in ground epidermis (n=2).
as §1, §2, §4, §3

[4] = OX100 100 μM + lactic acid 0.6%

## CC1(C)[C@@H](O[C@H]2O[C@H](C(=O)[O-])[C@@H](O)[C@H](O)[C@H]2O[C@@H]2O[C@H](C(=O)[O-])[C@@H](O)[C@H](O)[C@H]2O)CC[C@]2(C)[C@H]3C(=O)C=C4[C@@H]5C[C@@](C)(C(=O)O)CC[C@]5(C)CC[C@@]4(C)[C@]3(C)CC[C@@H]12.[K+].[K+] [GLY, Dipotassium glycyrrhizinate]
[1]; GLY 0.005% + lactic acid 0.6%
  C18:1 Mean ± SD, amount normalized to C16:0: 0.2785
  C18:2 LA Mean ± SD, amount normalized to C16:0: 0.1600
  C20:4 AA Mean ± SD, amount normalized to C16:0: 0.0435
  C18:1 Change: −28%
  C18:2 LA Change: −25%
  C20:4 AA Change: −24%
[1]; GLY 0.01% + lactic acid 0.6%
  C18:1 Mean ± SD, amount normalized to C16:0: 0.2680
  C18:2 LA Mean ± SD, amount normalized to C16:0: 0.1440
  C20:4 AA Mean ± SD, amount normalized to C16:0: 0.0395
  C18:1 Change: −31%
  C18:2 LA Change: −32%
  C20:4 AA Change: −31%
[2]; GLY 0.005% + lactic acid 0.6%
  Released IL1-alpha Mean ± Standard deviation: 28 ± 10 pg/mL
  Released IL8 Mean ± Standard deviation: 211 ± 41 pg/mL
  Released PGE2 Mean ± Standard deviation: 94 ± 36 pg/mL
  Released IL1-alpha Change: −59%
  Released IL8 Change: +1%
  Released PGE2 Change: −52%
[2]; GLY 0.01% + lactic acid 0.6%
  Released IL1-alpha Mean ± Standard deviation: 35 ± 16 pg/mL
  Released IL8 Mean ± Standard deviation: 244 ± 138 pg/mL
  Released PGE2 Mean ± Standard deviation: 137 ± 83 pg/mL
  Released IL1-alpha Change: −49%
  Released IL8 Change: +17%
  Released PGE2 Change: −31%
[2]; concentration not given
  Release of IL1α induced by lactic acid (in words): significantly inhibited
  Release of PGE2 induced by lactic acid (in words): significantly inhibited
[3]; GLY 0.005% + lactic acid 0.6%
  IL1RA/IL1-alpha ratio Mean ± SD: 25.6 ± 1.29
  Intracellular IL1-alpha Mean ± SD: 987.5 ± 101.1 pg/mg protein
  Intracellular IL1RA Mean ± SD: 25195 ± 1305 pg/mg protein
  Intracellular IL8 Mean ± SD: 78.39 ± 6.350 pg/mg protein
  IL1RA/IL1-alpha ratio Change: +3%
  Intracellular IL1-alpha Change: −5%
  Intracellular IL1RA Change: −2%
  Intracellular IL8 Change: −1%
[3]; GLY 0.01% + lactic acid 0.6%
  IL1RA/IL1-alpha ratio Mean ± SD: 19.1 ± 0.212
  Intracellular IL1-alpha Mean ± SD: 587.0 ± 63.64 pg/mg protein
  Intracellular IL1RA Mean ± SD: 11244 ± 1341 pg/mg protein
  Intracellular IL8 Mean ± SD: 50.17 ± 3.366 pg/mg protein
  IL1RA/IL1-alpha ratio Change: −23%
  Intracellular IL1-alpha Change: −44%
  Intracellular IL1RA Change: −56%
  Intracellular IL8 Change: −37%
[3]; concentration not given
  IL1RA/IL1α ratio (in words): maintained the IL1RA/IL1α ratio
  Increase in intracellular IL1RA level induced by lactic acid treatment (in words): significantly inhibited
  Increase in intracellular IL1α level induced by lactic acid treatment (in words): significantly inhibited
  Increase in intracellular IL8 level induced by lactic acid treatment (in words): significantly inhibited

## CCCCCCCCCCCC1=NC(C)(C)CO1 [OX100, Cycloceramide]
[1]; OX100 10 μM + lactic acid 0.6%
  C18:1 Mean ± SD, amount normalized to C16:0: 0.2795
  C18:2 LA Mean ± SD, amount normalized to C16:0: 0.1515
  C20:4 AA Mean ± SD, amount normalized to C16:0: 0.0380
  C18:1 Change: −28%
  C18:2 LA Change: −29%
  C20:4 AA Change: −34%
[1]; [4]
  C18:1 Mean ± SD, amount normalized to C16:0: 0.2065
  C18:2 LA Mean ± SD, amount normalized to C16:0: 0.0970
  C20:4 AA Mean ± SD, amount normalized to C16:0: 0.0265
  C18:1 Change: −47%
  C18:2 LA Change: −54%
  C20:4 AA Change: −54%
[2]; OX100 10 μM + lactic acid 0.6%
  Released IL1-alpha Mean ± Standard deviation: 27 ± 13 pg/mL
  Released IL8 Mean ± Standard deviation: 175 ± 30 pg/mL
  Released PGE2 Mean ± Standard deviation: 98 ± 28 pg/mL
  Released IL1-alpha Change: −61%
  Released IL8 Change: −16%
  Released PGE2 Change: −50%
[2]; [4]
  Released IL1-alpha Mean ± Standard deviation: 31 ± 19 pg/mL
  Released IL8 Mean ± Standard deviation: 146 ± 24 pg/mL
  Released PGE2 Mean ± Standard deviation: 100 ± 48 pg/mL
  Released IL1-alpha Change: −54%
  Released IL8 Change: −30%
  Released PGE2 Change: −49%
[2]; concentration not given
  Release of IL1α induced by lactic acid (in words): significantly inhibited
  Release of IL8 induced by lactic acid (in words): significantly inhibited
  Release of PGE2 induced by lactic acid (in words): significantly inhibited
[3]; OX100 10 μM + lactic acid 0.6%
  IL1RA/IL1-alpha ratio Mean ± SD: 25.6 ± 0.276
  Intracellular IL1-alpha Mean ± SD: 919.5 ± 53.03 pg/mg protein
  Intracellular IL1RA Mean ± SD: 23566 ± 1624 pg/mg protein
  Intracellular IL8 Mean ± SD: 76.24 ± 8.309 pg/mg protein
  IL1RA/IL1-alpha ratio Change: +4%
  Intracellular IL1-alpha Change: −12%
  Intracellular IL1RA Change: −8%
  Intracellular IL8 Change: −4%
[3]; [4]
  IL1RA/IL1-alpha ratio Mean ± SD: 20.5 ± 0.481
  Intracellular IL1-alpha Mean ± SD: 713.5 ± 113.8 pg/mg protein
  Intracellular IL1RA Mean ± SD: 14581 ± 1989 pg/mg protein
  Intracellular IL8 Mean ± SD: 56.95 ± 7.460 pg/mg protein
  IL1RA/IL1-alpha ratio Change: −17%
  Intracellular IL1-alpha Change: −32%
  Intracellular IL1RA Change: −43%
  Intracellular IL8 Change: −28%
[3]; concentration not given
  IL1RA/IL1α ratio (in words): maintained the balance of the IL1RA/IL1α ratio
  Increase in intracellular IL1RA level induced by lactic acid treatment (in words): significantly inhibited
